Legend:
[1] = target: T1, cloned human ORL1 receptors (Homo sapiens, UniProt P41146); assay: [3H]-OFQ/nociceptin receptor binding assay
T1 construct: expressed in transfected cells; host or cells: CHO cells (membranes)
Experimental: (§1) Radioligand binding assays are commonly used to determine the affinity (Ki) or potency of a compound to bind to a particular receptor or target protein. A filtration-based [3H]-OFQ/nociceptin receptor binding assay is developed based on previous assay formats (Ardati A, Henningsen R A, Higelin J, Reinscheid R K, Civelli O, Monsma F J Jr. Mol. Pharmacol. 1997 May; 51(5):816-24.) with minor modifications. [3H]-OFQ/nociceptin binding assays are carried out in deep-well 96-well plates. [^3H]OFQ (final assay concentration 0.2 nM) competition studies are carried out with 5-10 μg of membrane protein (isolated from Chinese hamster ovary cells (CHO cells) expressing cloned human ORL1 receptors) in a final assay volume of 0.5 mL of buffer containing 20 mM HEPES, pH 7.4, 5 mM MgCl2, 1 mM EGTA, 100 mM NaCl, 0.1% bovine serum albumin. Samples are incubated for 60 min. at room temperature, which is found to be optimal for competition assays. The assays are terminated by filtration through glass fiber filters (Wallac filtermat A) [pretreated with 0.3% polyethylenimine (Sigma) for 1 hr] on a Tometc cell harvester, and the filters are washed three times with 5 mL of ice-cold 50 mM Tris.HCl, pH 7.4. Filtermats are then dried and imbedded with Meltilex scintillant A and the radioactivity counted in a Wallac Microbeta scintillation counter. Specific binding is determined by displacement with 100 nM unlabeled nociceptin. Curves are plotted as the percent of specific binding and IC50 values are determined using a sigmoidal dose response curve with variable slope. K, values are calculated from the IC50 by the equation of Cheng and Prusoff (Cheng, Y. C., and Prusoff, W. H., Biochem. Pharmacol. 22, 3099-3108 (1973)) where Ki=IC50×(1+D×Kd^−1)^−1. Similarly, Ki for the mu, kappa and delta opioids, serotonin, adrenergic, and muscarinic receptors may be determined using membranes expressing the desired receptor and appropriate corresponding radioligand competitor molecules.

Delta Opioid = Delta Opioid (Homo sapiens, UniProt P41143); assay: Radioligand binding selectivity; settings: Delta Opioid; read-out: Ki
Experimental: as §1

Kappa Opioid = Kappa Opioid (Homo sapiens, UniProt P41145); assay: Radioligand binding selectivity; settings: Kappa Opioid; read-out: Ki
Experimental: as §1

Mu Opioid = Mu Opioid (Homo sapiens, UniProt P35372); assay: Radioligand binding selectivity; settings: Mu Opioid; read-out: Ki
Experimental: as §1

[2] = target: T2, cloned human ORL1/nociceptin receptors (Homo sapiens, UniProt P41146); assay: Functional blockade of agonist-mediated G-protein activation, GTP-γ-[35S] binding; type: biochemical
T2 construct: expressed in transfected cells
Source text: Agonist-mediated stimulation of G-protein coupled receptors results in the activation of membrane associated Gαβγ-protein heterotrimer complexes, and represents the first step in the transduction of extracellular signals to modification of intracellular pathways. The first step in activation of receptor-mediated activation of Gαβγ-proteins heterotrimer is the exchange of Gα subunit bound guanosine diphoshpate (GDP) for guanosine triphosphate (GTP). The binding of GTP to the Gα subunit causes dissociation of the heterotrimer subunits, Gβ and Gγ, resulting in the modulation of several intracellular signaling cascades. Measurement of receptor-mediated G-protein activation can be measured using the non-hydrolyzable radiolabeled analog of GTP, GTP-γ-[35S]. Utilizing this methodology, antagonist affinity (Kb) is measured in membranes expressing cloned human ORL1/nociceptin receptors using a GTP-γ-[35S] binding assay according to previously described protocols with minor modifications (DeLapp et al., J Pharmacol Exp Ther. 1999 May; 289(2):946-55; Ozaki et al., Eur J Pharmacol. 2000 Aug. 18; 402(1-2):45-53). Assays are conducted in a 200-μl volume with the following buffer composition: 100 mM NaCl, 20 mM HEPES, 5 mM MgCl2, 1 mM EDTA, 0.1% BSA, 3 μM GDP, 0.5 nM [^35S]GTPγS. ORL1 receptor membrane suspension is added at a concentration of 20 μg protein per well and receptor stimulation is achieved using 300 nM nociceptin/OFQ. Wheat germ agglutinin coated SPA beads (Amersham, Arlington Hts., Ill.) are added at 1 mg per well to detect membrane-bound [^35S]GTPγS. Plates are sealed and incubated for 2 hr. at room temperature. Plates are then placed at 4° C. overnight to allow the SPA beads to settle and then counted in a Wallac Microbeta. Specific [^35S]GTPγS binding is determined as the difference in CPM observed in the absence and presence of 10 μM unlabeled GTPγS. Data are plotted as the percent of specific [^35S]GTPγS bound. Curves are plotted as the percent of specific binding and IC50 values are determined using a sigmoidal dose response curve with variable slope. Antagonist affinity (Kb) is estimated according to DeLapp et al., 1999 using a modification of the equation of Cheng and Prusoff (1973) where Kb=IC50×(1+D×EC50^−1)^−1.

[3] = target: T3, nociceptin/ORL1 receptors (Rattus norvegicus, UniProt P35370); assay: In vivo receptor occupancy (LC/MS/MS, RO Tracer) in hypothalamus; settings: for receptor occupancy at 3 mg/kg: oral 3 mg/kg dose after 6 hr.
T3 construct: rats are sacrificed by cervical dislocation and the hypothalamus is removed; from tissue; host or cells: rat hypothalamus (in vivo occupancy)

[4] = target: human ERG (hERG) K+ channel (Homo sapiens, UniProt Q12809); assay: hERG channel [3H]astemizole binding assay
Experimental: Blockade of K^+-channel conductance in the heart is associated with cardiotoxicity in the form of QT-wave prolongation. The affinity (Ki) of the exemplified nociceptin receptor antagonists for the human ERG (hERG) K^+ channel is determined in HEK293 cells expressing cloned hERG using the hERG channel antagonist radioligand [3H]astemizole (2 nM final assay concentration) according to well known procedures (see for example Finlayson K, et al. (Eur J Pharmacol. 412(3):203-12, 2001) [3H]Astemizole binding assays are performed at the contract research company Cerep (Paris France) according to standard procedures.

[5] = system: NIH-Swiss mice; 129S6 wild type and nociceptin/ORL1 receptor knockout mice; assay: Forced-swim test in mice (mFST); type: in vivo, mouse
Source text: Forced-Swim Test in Mice (mFST) mFST is an established in vivo assay for antidepressant activity (Li et al. J Pharmacol Exp Ther. 319(1):254-9, 2006.). […] The mFST was used to evaluate potential antidepressant-like activity of novel nociceptin/ORL1 antagonists according to previously published methods (Li et al. J Pharmacol Exp Ther. 319(1):254-9, 2006.). Briefly, male NIH-Swiss mice (Harlan Sprague-Dawley, Indianapolis, Ind.) weighing between 25-30 g are used. Group housed animals are removed from the vivarium to the testing area in their own cages and allowed to adapt to the new environment for at least 1 hour before testing. Alternatively, male 129S6 wild type and nociceptin/ORL1 receptor knockout mice were used to confirm dependence of the response to compound was nociceptin/ORL1 receptor dependent. All compounds are prepared in 20% Captisol, 25 mM phosphate buffer, pH 2.0 on the day of use. Mice are placed in a cylinder (diameter: 10 cm; height: 25 cm) filled with 6 cm of water (22-25° C.) for 6 min. The duration of immobility during the last 4 min. of the 6 min. period of the test was scored. A mouse is recorded as immobile when floating motionless or making only those movements necessary to keep its head above water.

[6] = system: wild type and ORL knockout mice; assay: Blockade of fasting-induced hyperphagia in mice; type: in vivo, mouse
Source text: Blockade of fasting-induced hyperphagia in rats is an accepted model for hyperphagic eating disorders. […] Mice are individually housed a minimum of 3 days prior to the onset of testing to eliminate any effects of stress due to the change from group to individual housing. Three mice/genotype are randomly assigned to each treatment group on the test day. Pre-fast body weight measurements are taken, and food is then removed from cages overnight. Mice are fasted for approximately 15 hr. The next morning, the mice are given one of three doses of drug or vehicle via oral gavage 30 min. prior to gaining access to food. Drugs are dissolved in 20% Captisol dissolved in 25 mM phosphate buffer, pH 2.0. Measurements of body weight are taken immediately prior to drug treatment or 24 hr. after access to food is restored. […] Measurements of food intake are recorded 1 hr following access to food, as indicated, by weight of food remaining at 1 hr. It should be noted that food intake measured is during the light phase, a time during which mice are typically at rest and not normally eating. Following initial testing, mice are rested for 1 week with access to unlimited chow.

[7] = Rat hepatic microsomal glutathione trapping assay; type: in vitro ADME; settings: hepatic microsomal homogenate, glutathione as nucleophile
Source text: Assuming that reactive metabolites may play a role in clinical IDRs, minimizing the potential for oxidative bioactivation has been proposed as a means of improving the overall safety profile of compounds containing structural features associated with such reactivity. (see Baillie, Thomas A., Approaches to the Assessment of Stable and Chemically Reactive Drug Metabolites in Early Clinical Trials, Chemical Research in Toxicology, vol 22(2) 2009.) To this end, representative compounds of the present invention and related compounds are screened using a rat hepatic microsomal trapping assay, using glutathione as an endogenous nucleophile, to understand the potential for oxidative bioactivation of the thienyl moiety. […] Of the compounds tested, those wherein R^2a and R^2b are fluoro are found to not show glutathione conjugate formation.

[8] = wild type mice, oral gavage 30 min. prior to food, food intake 1 hr

T3 sequence (P35370 whole entry): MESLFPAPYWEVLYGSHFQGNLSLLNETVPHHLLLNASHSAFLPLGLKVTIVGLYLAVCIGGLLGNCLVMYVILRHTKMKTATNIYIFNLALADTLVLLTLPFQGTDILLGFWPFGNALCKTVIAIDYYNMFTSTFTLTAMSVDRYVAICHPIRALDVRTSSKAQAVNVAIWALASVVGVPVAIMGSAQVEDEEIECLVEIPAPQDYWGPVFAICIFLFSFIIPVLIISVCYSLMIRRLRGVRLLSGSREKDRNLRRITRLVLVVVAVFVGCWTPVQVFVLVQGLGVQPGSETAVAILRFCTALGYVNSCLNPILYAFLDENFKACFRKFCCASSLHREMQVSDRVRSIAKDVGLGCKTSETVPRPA
T1 sequence (P41146 whole entry): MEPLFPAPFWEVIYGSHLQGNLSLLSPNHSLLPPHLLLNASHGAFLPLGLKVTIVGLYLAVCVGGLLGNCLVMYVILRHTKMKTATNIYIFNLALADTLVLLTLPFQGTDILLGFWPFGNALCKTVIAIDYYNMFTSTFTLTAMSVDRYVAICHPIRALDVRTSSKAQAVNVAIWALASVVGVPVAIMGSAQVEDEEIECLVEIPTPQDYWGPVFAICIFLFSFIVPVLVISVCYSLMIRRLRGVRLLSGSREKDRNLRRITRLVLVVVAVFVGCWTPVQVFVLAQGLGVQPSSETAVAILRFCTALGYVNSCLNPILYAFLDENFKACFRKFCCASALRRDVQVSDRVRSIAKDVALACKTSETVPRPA
T2 sequence (P41146 whole entry): as above
human ERG (hERG) K+ channel, sequence (Q12809 whole entry): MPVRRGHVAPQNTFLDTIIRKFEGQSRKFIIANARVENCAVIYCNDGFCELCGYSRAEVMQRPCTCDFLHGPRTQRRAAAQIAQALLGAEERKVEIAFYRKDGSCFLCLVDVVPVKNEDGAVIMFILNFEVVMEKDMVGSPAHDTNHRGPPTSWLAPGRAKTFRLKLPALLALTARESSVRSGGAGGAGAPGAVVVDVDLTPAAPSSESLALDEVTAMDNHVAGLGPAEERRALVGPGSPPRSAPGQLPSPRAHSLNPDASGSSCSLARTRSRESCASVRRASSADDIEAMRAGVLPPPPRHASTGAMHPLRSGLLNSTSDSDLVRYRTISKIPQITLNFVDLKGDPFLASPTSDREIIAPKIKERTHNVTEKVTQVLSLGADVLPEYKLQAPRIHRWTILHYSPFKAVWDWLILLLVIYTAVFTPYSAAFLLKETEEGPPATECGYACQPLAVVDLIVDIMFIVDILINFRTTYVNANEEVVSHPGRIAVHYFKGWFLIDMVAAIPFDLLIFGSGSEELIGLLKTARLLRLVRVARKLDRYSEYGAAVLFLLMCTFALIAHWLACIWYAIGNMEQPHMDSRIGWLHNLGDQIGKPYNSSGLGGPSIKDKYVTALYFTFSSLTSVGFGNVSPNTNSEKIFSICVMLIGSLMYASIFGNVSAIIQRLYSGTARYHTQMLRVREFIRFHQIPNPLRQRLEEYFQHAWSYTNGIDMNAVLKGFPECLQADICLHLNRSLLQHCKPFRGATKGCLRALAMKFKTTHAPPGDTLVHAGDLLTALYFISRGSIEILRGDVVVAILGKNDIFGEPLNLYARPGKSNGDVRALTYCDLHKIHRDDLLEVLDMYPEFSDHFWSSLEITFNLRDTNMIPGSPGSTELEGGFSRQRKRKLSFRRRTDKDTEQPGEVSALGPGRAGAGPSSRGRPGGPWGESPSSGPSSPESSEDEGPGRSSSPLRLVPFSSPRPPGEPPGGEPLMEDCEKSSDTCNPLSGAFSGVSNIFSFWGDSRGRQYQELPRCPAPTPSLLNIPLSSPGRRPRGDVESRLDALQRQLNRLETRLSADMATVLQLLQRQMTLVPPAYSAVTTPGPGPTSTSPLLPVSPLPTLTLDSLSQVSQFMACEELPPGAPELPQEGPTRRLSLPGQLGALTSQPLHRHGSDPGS
Kappa Opioid, sequence (P41145 whole entry): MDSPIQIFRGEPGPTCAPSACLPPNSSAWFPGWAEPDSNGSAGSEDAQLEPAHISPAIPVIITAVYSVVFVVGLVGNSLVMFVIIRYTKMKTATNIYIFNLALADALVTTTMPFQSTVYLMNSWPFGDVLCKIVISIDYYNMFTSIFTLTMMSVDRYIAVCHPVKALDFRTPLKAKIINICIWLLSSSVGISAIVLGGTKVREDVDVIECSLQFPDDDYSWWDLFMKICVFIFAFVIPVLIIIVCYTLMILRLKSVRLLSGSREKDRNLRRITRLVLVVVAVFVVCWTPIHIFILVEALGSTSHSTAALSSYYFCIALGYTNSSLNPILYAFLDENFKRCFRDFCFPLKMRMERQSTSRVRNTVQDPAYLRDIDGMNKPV
Mu Opioid, sequence (P35372 whole entry): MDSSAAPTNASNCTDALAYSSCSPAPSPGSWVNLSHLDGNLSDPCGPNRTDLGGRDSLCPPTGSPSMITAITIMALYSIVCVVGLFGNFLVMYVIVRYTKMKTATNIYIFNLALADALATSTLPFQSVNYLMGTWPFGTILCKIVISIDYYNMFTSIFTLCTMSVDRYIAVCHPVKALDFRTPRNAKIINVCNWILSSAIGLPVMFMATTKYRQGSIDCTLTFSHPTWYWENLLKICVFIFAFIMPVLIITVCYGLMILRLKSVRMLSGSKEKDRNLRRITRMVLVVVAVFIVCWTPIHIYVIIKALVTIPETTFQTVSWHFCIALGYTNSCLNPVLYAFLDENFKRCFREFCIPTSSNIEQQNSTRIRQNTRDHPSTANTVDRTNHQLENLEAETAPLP
Delta Opioid, sequence (P41143 whole entry): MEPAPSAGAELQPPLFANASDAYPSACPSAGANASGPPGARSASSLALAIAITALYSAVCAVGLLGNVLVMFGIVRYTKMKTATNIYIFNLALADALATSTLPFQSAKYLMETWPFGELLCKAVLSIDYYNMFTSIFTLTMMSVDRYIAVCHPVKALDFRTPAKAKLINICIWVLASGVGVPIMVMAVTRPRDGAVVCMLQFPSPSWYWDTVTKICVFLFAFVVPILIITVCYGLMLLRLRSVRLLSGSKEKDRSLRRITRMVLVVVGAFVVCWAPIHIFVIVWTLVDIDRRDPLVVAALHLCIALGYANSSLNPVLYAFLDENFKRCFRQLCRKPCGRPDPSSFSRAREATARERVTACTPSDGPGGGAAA

`CC(=O)c1cccc(F)c1-n1cc(CN2CCC3(CC2)OCC(F)(F)c2cc(Cl)sc23)c(C)n1` [Example 40, 1-(2-(4-((2′-Chloro-4′,4′-difluoro-4′,5′-dihydrospiro[piperidine-4,7′-thieno[2,3-c]pyran]-1-yl)methyl)-3-methyl-1H-pyrazol-1-yl)-3-fluorophenyl)ethanone] showed a Ki [1] of 0.25 nM, a Ki (Delta Opioid) greater than 479 nM and a Ki (Kappa Opioid) greater than 430 nM. It also gave a Ki (Mu Opioid) greater than 451 nM, a Kb [2] of 0.3 nM and a receptor occupancy at 3 mg/kg [3] of 70%. The Ki [4] was 1080 nM, the “maximum effect, reduction in immobilization time” value ([5]; mFST) was 50% and the ED60 ([5]; mFST, immobility time) was 23 nM. The fasting-induced hyperphagia [6, 8] was “substantially block fasting-induced hyperphagia”.

Work on `Cc1nn(-c2c(F)cccc2-n2ccnc2C)cc1CN1CCC2(CC1)OCC(F)(F)c1cc(Cl)sc12.O=C(O)C(O)C(O)C(=O)O` [Example 47, 2-Chloro-4,4-difluoro-1′-[[1-[2-fluoro-6-(2-methylimidazol-1-yl)phenyl]-3-methyl-pyrazol-4-yl]methyl]spiro[5H-thieno[2,3-c]pyran-7,4′-piperidine] (L)-Tartrate] yielded a Ki [1] of 0.26 nM, a Kb [2] of 0.15 nM and a receptor occupancy at 3 mg/kg [3] of 84%. For the same molecule, the fasting-induced hyperphagia [6, 8] was “substantially block fasting-induced hyperphagia”.

With `Cc1nn(-c2c(F)cccc2C(N)=O)cc1CN1CCC2(CC1)OCCc1c2sc(F)c1F.O=C(O)C(O)C(O)C(=O)O` [3-fluoro-2-[4-[(2,3-difluorospiro[4,5-dihydrothieno[2,3-c]pyran-7,4′-piperidine]-1′-yl)methyl]-3-methyl-pyrazol-1-yl]benzamide (L) Tartrate, reference compound] the Glutathione conjugate formation [7] was “Yes”.

For `CN(C)CCCN1c2ccccc2CCc2ccccc21` [imiprimine, reference compound], the immobilization time ([5]; ORL-1 knockout mice) was “reduce immobilization times” and the immobilization time ([5]; wild type mice) was “reduce immobilization times”.

For `Clc1cccc(N2CCNCC2)c1` [mCPP, meta-chlorophenylpiperazine, reference compound], the fasting-induced hyperphagia ([6]; ORL-1 knockout mouse strain) was “significantly reduce fasting induced hyperphagia” and the fasting-induced hyperphagia [6, 8] was “significantly reduce fasting induced hyperphagia”.

With `Cc1nn(-c2c(F)cccc2C(N)=O)cc1CN1CCC2(CC1)OCC(F)(F)c1cc(F)sc12.O=C(O)C(O)C(O)C(=O)O` [Example 18, 3-fluoro-2-[3-methyl-4-[(2,4,4-trifluorospiro[5H-thieno[2,3-c]pyran-7,4′-piperidine]-1′-yl)methyl]pyrazol-1-yl]benzamide (L)-Tartrate] the Glutathione conjugate formation [7] was “No”.

With `Cc1nn(-c2c(F)cccc2CO)cc1CN1CCC2(CC1)OCC(F)(F)c1cc(Cl)sc12.O=C(O)C(O)C(O)C(=O)O` [Example 1, [2-[4-[(2-Chloro-4,4-difluoro-spiro[5H-thieno[2,3-c]pyran-7,4′-piperidine]-1′-yl)methyl]-3-methyl-pyrazol-1-yl]-3-fluoro-phenyl]methanol (L)-Tartrate] the fasting-induced hyperphagia [6, 8] was “substantially block fasting-induced hyperphagia”.

Work on `Cc1cccc2c1CC[C@@H](CN1CCC(c3c(Cl)cccc3Cl)CC1)C[C@H]2O` [SB612111, (−)-cis-1-methyl-7-[[4-(2,6-dichlorophenyl)piperidin-1-yl]methyl]-6,7,8,9-tetrahydro-5H-benzocyclohepten-5-ol, reference compound] yielded a receptor occupancy at 30 mg/kg ([3]; iv, intravenously 30 mg/kg 1 hr. prior to RO Tracer, positive control) of roughly 100%.

With `Cc1nn(-c2c(F)cccc2C(N)=O)cc1CN1CCC2(CC1)OCCc1cc(F)sc12.O=C(O)C(O)C(O)C(=O)O` [Example 9, 3-fluoro-2-[4-[(2-fluorospiro[4,5-dihydrothieno[2,3-c]pyran-7,4′-piperidine]-1′-yl)methyl]-3-methyl-pyrazol-1-yl]benzamide (L)-Tartrate] the Glutathione conjugate formation [7] was “Yes”.

— US20120214784A1, “SPIROPIPERIDINE COMPOUNDS AS ORL-1 RECEPTOR ANTAGONISTS” (ELI LILLY AND COMPANY, priority 2009, published 2012)
